Measured values taken from patent US11766430B2, “Methods of using a phenoxypropylamine compound to treat pain” (Minerva Neurosciences, Inc., priority 2018, dated 2023).
“Also recorded” adds a separate entry of the source.

Columns and labels:
[1] = test system: paclitaxel-induced neuropathy in rats; test: Other antidepressants in paclitaxel-induced neuropathy, paw withdrawal threshold (Example 7); format: in vivo; conditions: 60 min. following administration
Procedure: Two classes of antidepressants were also evaluated in Paw Withdrawal Threshold (PWT) experiments: duloxetine, a serotonin norepinephrine reuptake inhibitor, and amitriptyline, a tricyclic antidepressant.
(§1) On day 22, post-paclitaxel administration (left-most columns in FIG. 16 correspond to rats not administered paclitaxel), rats were administered vehicle (second columns from left in FIG. 16) or duloxetine (orally) and PWT was assessed 60 min. following injection. Data represents mean±s.e.m. (* p<0.05 vs. vehicle/vehicle).
as §1, with “27,” for “22,”, “17” for “16”, “17)” for “16)”, “amitriptyline” for “duloxetine”, “vehicle/vehicle, #p<0.05 vs. paclitaxel/vehicle).” for “vehicle/vehicle).”

[2] = test system: chemotherapy-induced peripheral neuropathic pain in rats; test: Paclitaxel-induced peripheral neuropathic pain, paw withdrawal threshold with von Frey filaments, single administration (Example 5); format: in vivo, Male Sprague Dawley rats
Procedure: Assessment of neuropathic pain using von Frey filaments was performed. Rats were administered paclitaxel (2 mg/kg) on four alternate days (days 1, 3, 5 and 7). Baseline and post treatment paw withdrawal thresholds (PWT) were evaluated using von Frey filaments (Semmes-Weinstein filaments, Stoelting, Wood Dale, Ill., USA) of varying stiffness (0.4, 0.7, 1.2, 2.0, 3.6, 5.5, 8.5, 10, 15, 26 g). Animals were placed on a perforated metallic platform and allowed to acclimate to their surroundings for a minimum of 15 minutes before each test session. Each filament was presented perpendicular to the plantar surface with sufficient force to cause slight buckling against the paw, and then held until a positive response is noted (paw sharply withdrawn). As described by Chaplan, S. R. et al. “Qualitative Assessment of Tactile Allodynia in the Rat Paw” Journal of Neuroscience Methods, 53 (1994), 55-63 (“Chaplan”), once the threshold was crossed, the 2 responses straddling the threshold are retrospectively designated as the first 2 responses. Four additional responses were measured to stimuli varied sequentially up or down based on the animal's response. The 6 responses in the immediate vicinity of the threshold were used to calculate the 50% g threshold: 50% g threshold=(10^[Xf+k*d])/10000
Xf is the final filament used (in log units). The parameter k is from the Appendix 1 in Chaplan and was determined by the pattern of the von Frey responses (e.g. OXOXOX where ‘O’ indicates no response and ‘X’ denotes a withdrawal). The parameter d is the difference between stimuli which Chaplan used a constant d=0.224. To accommodate for the use of the 10 g and 26 g filaments, the exact difference between stimuli were used.
(§2) Male Sprague Dawley rats (from Envigo, Ind., USA) were used in the study. Animals were received at approximately 250 g and housed 3 per cage upon arrival. All rats were examined, handled, and weighed prior to initiation of the study to assure adequate health and suitability. During the course of the study, 12 h/12 h light/dark cycles was maintained. The room temperature was be maintained between 20 and 23° C. with a relative humidity maintained around 50%. Chow and water was provided ad libitum for the duration of the study. All testing was performed during the animal's light cycle phase. Every effort was made to minimize suffering of animals. Rats with baseline PWT less than 12 g were not included in the study. Rats were balanced by body weight and by their pre-paclitaxel PWT values. ANOVA found no significant differences between the treatment groups.
Paclitaxel was purchased from Biolyse Pharma (Ontario, Canada) and was injected i.p. (2 mg/kg) on four alternate days (day 1, 3, 5 and 7) for a total of 4 injections at a dose volume of 1 mL/kg.
Rats were subsequently balanced and assigned to treatment groups based on post-paclitaxel PWT values. On test day, PWT was assessed two hours post vehicle or MIN-117 injections and one hour after gabapentin administration.
Gabapentin was purchased from Toronto Research Chemicals and was dissolved in saline and administered orally 60 minutes prior to test at a dose volume of 1 mL/kg. MIN-117 (1, 3 and 10 mg/kg), formulated in 0.5% (w/v) hydroxypropylmethylcellulose (HPMC, Sigma-Aldrich), was administered i.p. at a dose volume of 1 mL/kg. MIN-117 was administered 2 hours prior to test.

[3] = Body weight during the chemotherapy induced neuropathic pain study (Example 5); format: in vivo, Male Sprague Dawley rats; conditions: paclitaxel days 1, 3, 5, 7; test compound on day 14; repeated measures ANOVA
Procedure: as §2

[4] = test system: paclitaxel-induced peripheral neuropathic pain in rats; test: Prevention of paclitaxel-induced peripheral neuropathic pain, paw withdrawal threshold, chronic administration (Example 6); format: in vivo, Male Sprague Dawley rats; conditions: 100 mg/kg orally on day 14, sixty minutes prior to test (acute)
Procedure: (§3) Male Sprague Dawley rats from Envigo were used in the study. Animals were received at approximately 250 g and housed 3 per cage upon arrival. All rats were examined, handled, and weighed prior to initiation of the study to assure adequate health and suitability. During the course of the study, 12/12 light/dark cycles was maintained. The room temperature was be maintained between 20 and 23° C. with a relative humidity maintained around 50%. Chow and water was provided ad libitum for the duration of the study. All testing was performed during the animal's light cycle phase.
(§4) Paclitaxel (2 mg/kg) was purchased from Biolyse Pharma and injected i.p. on four alternate days (day 1, 3, 5 and 7) for a total of 4 injections at a dose volume of 1 mL/kg.
(§5) Gabapentin (100 mg/kg) was dissolved in saline and administered orally at a dose volume of 1 mL/kg. For prevention study, gabapentin was administered on day 14, sixty minutes prior to test. For reversal study, gabapentin was administered once daily for 2 weeks. On test days it was administered 60 minutes prior to test.
Prevention study: MIN-117 (10 mg/kg) was formulated in 0.5% (w/v) hydroxypropylmethyl cellulose (HPMC) 8°-120 centipoises in water and was administered i.p once daily for 7 or 14 days at a dose volume of 1 mL/kg. On test days, MIN-117 was administered 2 hours prior to test.
Rats were administered paclitaxel (2 mg/kg) on four alternate days (days 1, 3, 5 and 7). Baseline and post treatment Paw Withdrawal Threshold (PWT) were evaluated using von Frey filaments (Semmes-Weinstein filaments, Stoelting, Wood Dale, Ill., USA) of varying stiffness (0.4, 0.7, 1.2, 2.0, 3.6, 5.5, 8.5, 10, 15, 26 g). Animals were placed on a perforated metallic platform and allowed to acclimate to their surroundings for a minimum of 15 minutes before each test session. Each filament was presented perpendicular to the plantar surface with sufficient force to cause slight buckling against the paw, and then held until a positive response is noted (paw sharply withdrawn). As described by Chaplan et al. 1994, once the threshold was crossed, the 2 responses straddling the threshold are retrospectively designated as the first 2 responses. Four additional responses were measured to stimuli varied sequentially up or down based on the animal's response. […] The parameter k is from the Appendix 1 in Chaplan and was determined by the pattern of the von Frey responses (e.g. OXOXOX where ‘O’ indicates no response and ‘X’ denotes a withdrawal). […]
(§6) PWT was measured according to the Schematics in FIG. 9 (prevention) and FIG. 10 (reversal study).
Data was analyzed by analysis of variance (ANOVA) followed by post-hoc comparisons where appropriate. […]

[5] = test system: paclitaxel-induced peripheral neuropathic pain in rats; test: Reversal of paclitaxel-induced peripheral neuropathic pain, paw withdrawal threshold, chronic administration (Example 6); format: in vivo, Male Sprague Dawley rats; conditions: for PWT compared to vehicle (in words): days 14, 21 and 28; for PWT after cessation of treatment (in words): 100 mg/kg orally, day 35, one week after cessation of treatment
Procedure: as §3, §4, §5
Reversal study: MIN-117 (1, 3 and 10 mg/kg) was formulated in 0.5% (w/v) hydroxypropylmethyl cellulose (HPMC) 8°-120 centipoises in water and administered i.p once daily for 2 weeks at a dose volume of 1 mL/kg. On test days, MIN-117 was administered 2 hours prior to test.
Rats were administered paclitaxel (2 mg/kg) on four alternate days (days 1, 3, 5 and 7). Baseline and post treatment Paw Withdrawal Threshold (PWT) were evaluated using von Frey filaments (Semmes-Weinstein filaments, Stoelting, Wood Dale, Ill., USA) of varying stiffness (0.4, 0.7, 1.2, 2.0, 3.6, 5.5, 8.5, 10, 15, 26 g). Animals were placed on a perforated metallic platform and allowed to acclimate to their surroundings for a minimum of 15 minutes before each test session. Each filament was presented perpendicular to the plantar surface with sufficient force to cause slight buckling against the paw, and then held until a positive response is noted (paw sharply withdrawn). As described by Chaplan et al. 1994, once the threshold was crossed, the 2 responses straddling the threshold are retrospectively designated as the first 2 responses. Four additional responses were measured to stimuli varied sequentially up or down based on the animal's response. The 6 responses in the immediate vicinity of the threshold were used to calculate the 50% g threshold: 50% g threshold=(10^[Xf+k*d])/10000 Xf is the final filament used (in log units). The parameter k is from the Appendix 1 in Chaplan and was determined by the pattern of the von Frey responses (e.g. OXOXOX where ‘O’ indicates no response and ‘X’ denotes a withdrawal). The parameter d is the difference between stimuli which Chaplan used a constant d=0.224. To accommodate for the use of the 10 g and 26 g filaments, the exact difference between stimuli were used.
as §6
Data was analyzed by analysis of variance (ANOVA) followed by post-hoc comparisons where appropriate. An effect will be considered significant if p<0.05. Data was represented as the mean and standard error to the mean (s.e.m). Statistical outliers that fell above or below 2 standard deviations of the mean were identified but not removed from the final analysis.

CN(C)CCC=C1c2ccccc2CCc2ccccc21 [amitriptyline]
Effect on PWT in paclitaxel-treated rats (in words) ([1]; 3 mg/kg orally, day 27 post-paclitaxel): not found to reverse paclitaxel-induced neuropathy | Effect on PWT in paclitaxel-treated rats (in words) ([1]; 10 mg/kg orally, day 27 post-paclitaxel): not found to reverse paclitaxel-induced neuropathy | Effect on PWT in paclitaxel-treated rats (in words) ([1]; 30 mg/kg orally (highest dose tested), day 27 post-paclitaxel): only partially reversed

CNCC[C@H](Oc1cccc2ccccc12)c1cccs1 [duloxetine]
Effect on PWT in paclitaxel-treated rats (in words) ([1]; 3 mg/kg orally, day 22 post-paclitaxel): no effect on PWT | Effect on PWT in paclitaxel-treated rats (in words) ([1]; 10 mg/kg orally, day 22 post-paclitaxel): no effect on PWT | Effect on PWT in paclitaxel-treated rats (in words) ([1]; 30 mg/kg orally, day 22 post-paclitaxel): no effect on PWT

NCC1(CC(=O)O)CCCCC1 [Gabapentin, reference compound]
Paw withdrawal threshold (PWT) compared to vehicle (in words) ([2]; Day 14 after first paclitaxel, administered orally 60 minutes prior to test): significant increase in PWT | Paw withdrawal threshold (PWT), Day 14 Avg., Mean ([2]; Paclitaxel + Gabapentin (100 mg/kg), oral, 60 minutes prior to test, Count 12): 19.633 g | Mean Diff. of Day 14 Avg. PWT, Fisher's PLSD ([2]; Paclitaxel + Vehicle, Paclitaxel + Gabapentin (100 mg/kg)): −15.759 | Body weight during the study, between groups (in words) [3]: no significant difference between groups | PWT compared to vehicle (in words) [4]: significant increase in PWT; also recorded: significantly higher PWT | PWT compared to vehicle (in words) ([5]; 100 mg/kg orally once daily for 2 weeks (chronic), 1 hour post dosing): significant increase in PWT; also recorded: significantly higher PWT | PWT after cessation of treatment (in words) [5]: returned to vehicle levels | PWT after cessation of treatment (in words) ([5]; listed as gabapentin): no significant effect on PWT

Cc1nnc(-c2cc3c(OC[C@@H](O)CN4CCC(c5ccc(Cl)c(Cl)c5)CC4)cccc3o2)o1 [Compound I, (2S)-1-(4-(3,4-dichlorophenyl)piperidin-1-yl)-3-((2-(5-methyl-1,3,4-oxadiazol-2-yl)benzofuran-4-yl)oxy)propan-2-ol]
PWT compared to vehicle (in words) ([5]; 1 mg/kg i.p. once daily for 2 weeks, 2 hours post dosing): significant increases in pain with threshold | PWT compared to vehicle (in words) ([5]; 3 mg/kg i.p. once daily for 2 weeks, 2 hours post dosing): significant increases in pain with threshold | PWT compared to vehicle (in words) ([5]; 10 mg/kg i.p. once daily for 2 weeks, 2 hours post dosing): significant increases in pain with threshold
